Patent US20230340127A1, “METHODS AND COMPOSITIONS FOR CANCER TREATMENT BY INHIBITION OF FBXO44” (Sanford Burnham Prebys Medical Discovery Institute, priority 2022, published 2023)

Tested on: MDA-MB-231 or 4T1 cells
Assay: qRT-PCR of endogenous retroelements, IFN-α/β, ISGs and PD-L1 in F5446-treated cells
Format: cell-based
Conditions: cancer cells (MDA-MB-231, 4T1), qRT-PCR (FIGS. 10F-10G)
Experimental: Quantitative (q)RT-PCR: total RNA was isolated using the RNeasy Plus Mini Kit (Qiagen no. 74134). cDNA was synthesized using qScript cDNA SuperMix (Quantabio no. 95048) following the manufacturer's instructions. qPCR reactions were performed using SYBR Select Master Mix (Thermo Fisher Scientific no. 4472908) and a Stratagene Mx3000P instrument (Agilent Technologies). Thermal cycling conditions included an initial denaturation step of 95° C. for 10 min and 40 cycles at 95° C. for 15 sec and 60° C. for 60 sec. Analyses were carried out in triplicate for each data point. The qPCR primers used for gene expression analysis of human REs and genes included MajSAT-[…] (SEQ ID NO: 1) and […] (SEQ ID NO: 2), mcBox-[…] (SEQ ID NO: 3) and […] (SEQ ID NO: 4), SATIII-[…] (SEQ ID NO: 5) and […] (SEQ ID NO: 6), Alu-[…] (SEQ ID NO: 7) and […] (SEQ ID NO: 8), L1 ORF1-TGGCCCCCACTCTCTTCT (SEQ ID NO: 18) and […] (SEQ ID NO: 19), L1 ORF2-[…] (SEQ ID NO: 20) and […] (SEQ ID NO: 21), L1 5′-UTR-AAGCAAGCCTGGGCAATG (SEQ ID NO: 22) and […] (SEQ ID NO: 23), HERV-E-[…] (SEQ ID NO: 24) and GCAGCCTAGGTCTCTGG (SEQ ID NO: 25), HERV-F-CCTCCAGTCACAACAACTC (SEQ ID NO: 26) and TATTGAAGAAGGCGGCTGG (SEQ ID NO: 27), HERV-K-[…] (SEQ ID NO: 28) and […] (SEQ ID NO: 29), ERVL-[…] (SEQ ID NO: 30) and […] (SEQ ID NO: 31), GAPDH-[…] (SEQ ID NO: 32) and […] (SEQ ID NO: 33), FBXO44-[…] (SEQ ID NO: 34) and […] (SEQ ID NO: 35), SUV39H1-[…] […]

COC(=O)c1cc2c(n1S(=O)(=O)c1ccc(Cl)cc1)C(=O)C(=O)c1[nH]cc(C(=O)OCc3ccccc3)c1-2 [F5446]
expression of various REs and IFN signaling: activated
